Laboratory results from patent US20160237450A1, “METHOD FOR ENHANCING DROUGHT TOLERANCE IN PLANTS” (Plant Response Biotech S.L., priority 2015, published 2016).

How the values were obtained:
Type in all cases: in vivo
[1] = TMAO accumulation in barley leaves after spray (NMR); settings: 1 g/l spray formulated with 0.1% C8-C10 Alkylpolysaccharide, 1 day post spray
Description: At least three independent plants were treated per experiment.
Leaves were harvested and TMAO was determined by NMR.

[2] = system: strawberry plants ('Sabrina', 'Candonga', 'Fortuna'); experiment: Strawberry fruit production without drought stress (trade-off); settings: no drought stress; for Strawberry fruit production, % Control (2013) / Strawberry fruit production, % Control (2014): 1 g/l spray every 4 weeks for 3 months
Description: (§1) In order to determine the plant yield productivity under normal conditions, ‘Sabrina’, ‘Candonga’ and ‘Fortuna’ strawberry varieties, leek, lettuce, “Iceberg” variety, broccoli “Parthenon” variety, celery or kohlrabi plants, were grown under standard production conditions and 120 plants of each variety per treatment (where the treatment was a control comprising standard watering or 1 g/L of TMAO di-hydrate spray every four weeks) were analyzed. Plants were located in four (4) different positions for each group of 30 plants from the same treatment. Fruits, leaves or roots were harvested from individual plants and total weight was determined for each plant.
Fruit yield was determined in ‘Sabrina’, ‘Candonga’ and ‘Fortuna’ strawberry plants treated with 1 g/l of TMAO di-hydrate or water as described above in order to evaluate the trade-off costs of the treatment with no drought stress.

[3] = system: Arabidopsis thaliana plants (Col-0); experiment: Drought fitness of wild type Arabidopsis sprayed with TMAO di-hydrate; settings: Col-0 sprayed 1 g/L after first wilting cycle, scale 0 dead to 4 healthy
Description: Transgenic FMO3X and FMO8X genotypes and wild type Col-0 seeds of Arabidopsis thaliana were sown, grown and treated as described above. For the control group of both wild-type and transgenic plants, six week old plants were irrigated with 40 ml of water twice in the week, while “drought” treated plants of both wild-type and transgenic plants were not irrigated until all the plants were wilted.
After the first cycle of wilting wild type plants were sprayed with 1 g/L TMAO di-hydrate to determine if the wilted wild type plants could recover and perform as well as the transgenic plants in the following cycles of wilting. Fitness values were assigned using the following criteria: 0: Dead plant; 1: Critically damaged plant symptoms; 2: Moderate damaged plant symptoms; 3: Slightly damaged plant symptoms; and 4: Healthy plant.

[4] = system: broccoli plants (Parthenon); experiment: Yield production without drought stress, broccoli; settings: 1 g/l spray every 4 weeks for 3 months, no drought stress
Description: as §1
Root or leaves yield was determined in the plants treated with 1 g/l of TMAO di-hydrate or water as described above in order to evaluate the trade-off costs of the treatment with no drought stress.

[5] = system: tomato plants ('Moneymaker'); experiment: Tomato stem size under limited water irrigation
Description: (§2) For each drought or limited water experiment 480 seeds (of either pepper, barley, tomato, cucumber or corn) were sown, producing 384 plants in 512 cm^3 pots (4 plants per pot). Plants were grown under chamber conditions at 21° C. for 3 weeks. Then, the plants were moved to a greenhouse, where average temperature was 25° C. to 28° C. Spray and irrigation treatments as described herein were done when the plants had two extended leaves and the next pair of leaves were coming up.
(§3) Treatments: Twelve pots (containing 48 plants) were irrigated with 40 ml of either: water, 0.1 g/L TMAO di-hydrate solution, 1.0 g/L TMAO di-hydrate solution, or 5.5 g/L TMAO di-hydrate solution. Another set of 12 pots containing 48 plants were sprayed with 40 ml of either water (3.3 ml in average per pot), a solution containing 0.1 g/L TMAO di-hydrate solution, 1.0 g/L TMAO di-hydrate, or 5 g/L, or 10 g/L TMAO di-hydrate. Further sets of 12 pots containing 48 plants were both sprayed with each initial solution TMAO di-hydrate solution and further irrigated with the same TMAO di-hydrate solutions used in the control water sprayed plants. All pots were also watered with 40 ml of water. The sprayed plants were watered with the same volume of water as the “irrigated plants). The pots were located on plastic glass to maintain constant moisture and to avoid liquid spillage during watering. Trays containing the pots were located on greenhouse tables. The distribution of the trays on the table and the position on the pots in the tray was changed every week to avoid position effects.
After the treatments described above, for the “limited water” experiments plants were watered with 20 ml of water or solution instead of 40 ml when the first plants started to wilt. The stem length was recorded as analyzed for the limited water experiments in which the plants are watered with 50-30% of the water that the plant requires.
TMAO di-hydrate applied exogenously which increases the endogenous content of TMAO as if the plants were overexpressing an FMO protein at least 4 times increases plant stem size in tomato under limited water irrigation. ‘Moneymaker’ tomato seeds were sown, grown and treated as described.

[6] = system: broccoli plants (Parthenon); experiment: Broccoli inflorescence fresh weight with constant TMAO irrigation; settings: 100% water; constant irrigation with 1 g/L
Text: TMAO di-hydrate applied exogenously which increases the endogenous content of TMAO as if the plants were overexpressing an FMO protein at least 4 times increases plant production in broccoli. Parthenon broccoli seeds were sown, grown and treated as described above. Constant irrigation with 1 g/L TMAO di-hydrate increased plant inflorescence production.

barley plants ('Bomi') = experiment: Barley dry weight under drought
Description: as §2, §3
After the treatments described above, the plants were not watered until the pots completely lost their moisture, taking about 4 to 8 days depending on the season, at which point the plants were extremely wilted for the extreme drought experiments. […] For the “extreme drought” experiments plants were allowed to wilt severely before watering and then the plant survival rate was recorded and analyzed. […]

## C[N+](C)(C)[O-].O.O [TMAO di-hydrate, trimethylamine N-oxide di-hydrate]
[1]
  TMAO % Control: 822%
  TMAO (μM) in leaves: 4633.2 µM
[2]; 1 g/l
  difference in fruit production versus water-treated plants: no significant difference
[2]; Candonga
  Strawberry fruit production, % Control (2013): 102%
  Strawberry fruit production, % Control (2014): 106%
[2]; Fortuna
  Strawberry fruit production, % Control (2013): 101%
  Strawberry fruit production, % Control (2014): 105%
[2]; Sabrina
  Strawberry fruit production, % Control (2013): 106%
  Strawberry fruit production, % Control (2014): 115%
[2]; Total of varieties
  Strawberry fruit production, % Control (2013): 105%
  Strawberry fruit production, % Control (2014): 111%
[3]
  Mean Fitness Value ± S.E.: 1.83 ± 0.21
[4]
  Yield production, % Control: 120%
[5]; initial treatment 0.1 g/L, irrigations 1 g/L
  AVERAGE STEM SIZE (cm): 12.32 ± 0.56 cm
[5]; initial treatment 0.1 g/L, irrigations water
  AVERAGE STEM SIZE (cm): 11.06 ± 0.55 cm
[5]; initial treatment 1 g/L, irrigations 1 g/L
  AVERAGE STEM SIZE (cm): 13.77 ± 0.55 cm
[5]; initial treatment 1 g/L, irrigations water
  AVERAGE STEM SIZE (cm): 11.59 ± 0.55 cm
[5]; initial treatment 5 g/L, irrigations 1 g/L
  AVERAGE STEM SIZE (cm): 14.6 ± 0.55 cm
[5]; initial treatment 5 g/L, irrigations water
  AVERAGE STEM SIZE (cm): 14.2 ± 0.56 cm
[5]; initial treatment water, irrigations 1 g/L
  AVERAGE STEM SIZE (cm): 12.97 ± 0.55 cm
[6]
  AVERAGE FRESH WEIGHT (GRAMS) PER INFLORESCENCE: 220.2 ± 16.6 GRAMS
  increase of broccoli inflorescence fresh weight: 70%
Barley plants ('Bomi'); initial treatment 1 g/L sprayed, irrigations water, three cycles of wilt-watering
  AVERAGE DRY weight ± S.E.: 1205.4 ± 60.37 mg
Barley plants ('Bomi'); initial treatment 1 g/L watered, irrigations water, three cycles of wilt-watering
  AVERAGE DRY weight ± S.E.: 1371.4 ± 66.13 mg
Barley plants ('Bomi'); no initial treatment, irrigations 1 g/L
  AVERAGE DRY weight ± S.E.: 1216.1 ± 33.44 mg
